From patent US8492589B2, “Alkynyl phenyl derivative compounds for treating ophthalmic diseases and disorders” (Acucela Inc., priority 2007, dated 2013)

Target: T1, visual cycle isomerase (Bovine RPE microsome membranes) (Bos taurus, UniProt Q28175)
T1 construct: Bovine Retinal Pigment Epithelium (RPE) microsome membranes were the source of a visual cycle isomerase; from tissue; host or cells: bovine retinal pigment epithelium microsome membranes
T1 sequence (Q28175 2-533 limits assumed): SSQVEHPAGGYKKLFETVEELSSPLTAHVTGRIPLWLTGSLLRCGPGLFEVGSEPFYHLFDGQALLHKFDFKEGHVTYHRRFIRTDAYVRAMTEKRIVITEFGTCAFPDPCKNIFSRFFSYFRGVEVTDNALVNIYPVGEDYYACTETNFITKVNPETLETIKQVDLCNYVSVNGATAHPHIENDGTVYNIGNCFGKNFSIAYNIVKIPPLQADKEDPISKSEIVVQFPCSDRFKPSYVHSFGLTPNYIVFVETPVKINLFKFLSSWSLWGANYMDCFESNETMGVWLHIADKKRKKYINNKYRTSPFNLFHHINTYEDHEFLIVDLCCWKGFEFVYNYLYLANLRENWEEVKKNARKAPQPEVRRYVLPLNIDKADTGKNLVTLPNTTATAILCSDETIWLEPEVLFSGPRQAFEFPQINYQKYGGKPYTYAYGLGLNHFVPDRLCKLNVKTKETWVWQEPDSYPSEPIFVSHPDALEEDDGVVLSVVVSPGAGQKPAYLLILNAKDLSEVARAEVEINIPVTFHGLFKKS
Assay: In vitro isomerase inhibition assay, bovine RPE microsome membranes
Type: biochemical
Conditions: bovine RPE microsomes; 11-cis retinol formation
Description: The capability of alkynyl phenyl-linked amine derivative compounds to inhibit the activity of a visual cycle isomerase was determined.
Bovine Retinal Pigment Epithelium (RPE) microsome membranes were the source of a visual cycle isomerase.
Crude RPE microsome extracts were thawed in a 37° C. water bath, and then immediately placed on ice. 50 ml crude RPE microsomes were placed into a 50 ml Teflon-glass homogenizer (Fisher Scientific, catalog no. 0841416M) on ice, powered by a hand-held DeWalt drill, and homogenized ten times up and down on ice under maximum speed. This process was repeated until the crude RPE microsome solution was homogenized. The homogenate was then subjected to centrifugation (50.2 Ti rotor (Beckman, Fullerton, Calif.), 13,000 RPM; 15360 Rcf) for 15 minutes at 4° C. The supernatant was collected and subjected to centrifugation at 42,000 RPM (160,000 Rcf; 50.2 Ti rotor) for 1 hour at 4° C. The supernatant was removed, and the pellets were suspended in 12 ml (final volume) cold 10 mM MOPS buffer, pH 7.0. The resuspended RPE membranes in 5 ml aliquots were homogenized in a glass-to-glass homogenizer (Fisher Scientific, catalog no. K885500-0021) to high homogeneity. Protein concentration was quantified using the BCA protein assay according to the manufacturer's protocol (Pierce, Rockford, Ill.). The homogenized RPE preparations were stored at −80° C.
Recombinant human apo cellular retinaldehyde-binding protein (CRALBP) was cloned and expressed according to standard methods in the molecular biology art (see Crabb et al., Protein Science 7:746-57 (1998); Crabb et al., J. Biol. Chem. 263:18688-92 (1988)). Briefly, total RNA was prepared from confluent ARPE19 cells (American Type Culture Collection, Manassas, Va.), cDNA was synthesized using an oligo(dT)12-18 primer, and then DNA encoding CRALBP was amplified by two sequential polymerase chain reactions (see Crabb et al., J. Biol. Chem. 263:18688-92 (1988); Intres, et al., J. Biol. Chem. 269:25411-18 (1994); GenBank Accession No. L34219.1). The PCR product was sub-cloned into pTrcHis2-TOPO TA vector according to the manufacturer's protocol (Invitrogen Inc., Carlsbad, Calif.; catalog no. K4400-01), and then the sequence was confirmed according to standard nucleotide sequencing techniques. Recombinant 6×His-tagged human CRALBP was expressed in One Shot TOP 10 chemically competent E. coli cells (Invitrogen), and the recombinant polypeptide was isolated from E. coli cell lysates by nickel affinity chromatography using nickel (Ni) Sepharose XK16-20 columns for HPLC (Amersham Bioscience, Pittsburgh, Pa.; catalog no. 17-5268-02). The purified 6×His-tagged human CRALBP was dialyzed against 10 mM bis-tris-Propane (BTP) and analyzed by SDS-PAGE. The molecular weight of the recombinant human CRALBP was approximately 39 kDal.
Alkkynyl phenyl-linked amine derivative compounds and control compounds were reconstituted in ethanol to 0.1 M. Ten-fold serial dilutions (10^−2, 10^−3, 10^−4, 10^−5, 10^−6 M) in ethanol of each compound were prepared for analysis in the isomerase assay.
The isomerase assay was performed in 10 mM bis-tris-propane (BTP) buffer, pH 7.5, 0.5% BSA (diluted in BTP buffer), 1 mM sodium pyrophosphate, 20 μM all-trans retinol (in ethanol), and 6 μM apo-CRALBP. The test compounds (2 μl) (final […] dilution of serial dilution stocks) were added to the above reaction mixture to which RPE microsomes were added. The same volume of ethanol was added to the control reaction (absence of test compound). Bovine RPE microsomes (9 μl) (see above) were then added, and the mixtures transferred to 37° C. to initiate the reaction (total volume=150 μl). The reactions were stopped after 30 minutes by adding methanol (300 μl). Heptane was added (300 μl) and mixed into the reaction mixture by pipetting. Retinoid was extracted by agitating the reaction mixtures, followed by centrifugation in a microcentrifuge. […]

With `CCCCC[C@@H](O)C#Cc1cccc(CCCN)c1` [Example 15, (R)-1-(3-(3-Aminopropyl)phenyl)oct-1-yn-3-ol] as the compound, how does the IC50 read?
Its IC50 is at most 1 µM.

Which IC50 does the source give for `NCCOc1cccc(C#CCc2ccccc2)c1` [Example 75, 2-(3-(3-phenylprop-1-ynyl)phenoxy)ethanamine] here?
The IC50 was at most 1 µM.

For `NCCCc1cccc(C#CC2CCCCC2)c1` [Example 41, 3-(3-(Cyclohexylethynyl)phenyl)propan-1-amine], which IC50 is on record?
Its IC50 is at most 1 µM.

For `NCCCc1cccc(C#Cc2cccs2)c1` [Example 65, 3-(3-(Thiophen-2-ylethynyl)phenyl)propan-1-amine], which IC50 is on record?
Its IC50 is at most 10 µM.

Which IC50 does the source give for `NCCCc1cccc(C#CC2(O)CCCCCC2)c1` [Example 58, 1-((3-(3-Aminopropyl)phenyl)ethynyl)cycloheptanol] here?
Its IC50 is at most 1 µM.

With `Cc1ccccc1C#Cc1cccc(CCCN)c1` [Example 83, 3-(3-(o-Tolylethynyl)phenyl)propan-1-amine] as the compound, how does the IC50 read?
The IC50 was at most 10 µM.

How did the IC50 turn out when `Cc1cccc(C)c1C#Cc1cccc(CCCN)c1` [Example 17, 3-(3-((2,6-dimethylphenyl)ethynyl)phenyl)propan-1-amine] was run?
Its IC50 is at most 10 µM.

Which IC50 does the source give for `CC(C)CC(O)(C#Cc1cccc(CCCN)c1)CC(C)C` [Example 33, 4-((3-(3-Aminopropyl)phenyl)ethynyl)-2,6-dimethylheptan-4-ol] here?
The IC50 was at most 10 µM.

For `CCCC(O)(C#Cc1cccc(CCN)c1)CCC` [Example 141, 4-((3-(2-Aminoethyl)phenyl)ethynyl)heptan-4-ol], which IC50 is on record?
Its IC50 is at most 1 µM.

With `COCCCC#Cc1cccc(CCCN)c1` [Example 70, 3-(3-(5-Methoxypent-1-ynyl)phenyl)propan-1-amine] as the compound, how does the IC50 read?
Its IC50 is at most 1 µM.

With `CCCCC(O)(C#Cc1cccc(OCCN)c1)CCCC` [Example 29, 5-((3-(2-Aminoethoxy)phenyl)ethynyl)nonan-5-ol] as the compound, how does the IC50 read?
Its IC50 is at most 1 µM.

Which IC50 does the source give for `NCCCc1cccc(C#CCCO)c1` [Example 34, 4-(3-(3-Aminopropyl)Phenyl)But-3-Yn-1-ol] here?
The IC50 was at most 100 µM.

How did the IC50 turn out when `Cc1ccc(C#Cc2cccc(CCCN)c2)cc1` [Example 84, 3-(3-(p-Tolylethynyl)phenyl)propan-1-amine] was run?
The IC50 was at most 100 µM.

How did the IC50 turn out when `N#Cc1cccc(C#Cc2cccc(CCCN)c2)c1` [Example 90, 3-((3-(3-Aminopropyl)phenyl)ethynyl)benzonitrile] was run?
Its IC50 is at most 10 µM.

For `CC(C)(C)c1cc(C#Cc2cccc(CCCN)c2)cc(C(C)(C)C)c1` [Example 93, 3-(3-((3,5-Di-tert-butylphenyl)ethynyl)phenyl)propan-1-amine], which IC50 is on record?
The IC50 was at most 1000 µM.

`CCCCC(O)(C#Cc1cccc(CCCN)c1)CCCC` [Example 3, 5-((3-(3-Aminopropyl)phenyl)ethynyl)nonan-5-ol] was tested. Which IC50 did it give?
Its IC50 is at most 1 µM.

`NCCOc1cccc(C#Cc2ccccn2)c1` [Example 98, 2-(3-(Pyridin-2-ylethynyl)phenoxy)ethanamine] was tested. Which IC50 did it give?
Its IC50 is at most 10 µM.

For `NCCCc1cccc(C#Cc2cccnc2)c1` [Example 64, 3-(3-(Pyridin-3-ylethynyl)phenyl)propan-1-amine], which IC50 is on record?
Its IC50 is at most 10 µM.

Which IC50 does the source give for `N#Cc1cccc(C#Cc2cccc(OCCN)c2)c1` [Example 88, 3-((3-(2-Aminoethoxy)phenyl)ethynyl)benzonitrile] here?
The IC50 was at most 10 µM.

Which IC50 does the source give for `CC(O)CC#Cc1cccc(CCCN)c1` (centres unmarked) [Example 35, 5-(3-(3-Aminopropyl)phenyl)pent-4-yn-2-ol] here?
The IC50 was at most 10 µM.

With `NCCCc1cccc(C#CCCCCO)c1` [Example 68, 6-(3-(3-Aminopropyl)phenyl)hex-5-yn-1-ol] as the compound, how does the IC50 read?
Its IC50 is at most 1 µM.

How did the IC50 turn out when `CCCCC[C@H](O)C#Cc1cccc(CCCN)c1` [Example 14, (S)-1-(3-(3-Aminopropyl)phenyl)oct-1-yn-3-ol] was run?
Its IC50 is at most 10 µM.

For `NCCCc1cccc(C#CCC2CCCC2)c1` [Example 39, 3-(3-(3-Cyclopentylprop-1-ynyl)phenyl)propan-1-amine], which IC50 is on record?
Its IC50 is at most 1 µM.

`NCCOc1cccc(C#Cc2ccncc2)c1` [Example 97, 2-(3-(Pyridin-4-ylethynyl)phenoxy)ethanamine] was tested. Which IC50 did it give?
Its IC50 is at most 10 µM.

With `CC(C)C(O)C#Cc1cccc(CCCN)c1` (centres unmarked) [Example 23, 1-(3-(3-Aminopropyl)phenyl)-4-methylpent-1-yn-3-ol] as the compound, how does the IC50 read?
Its IC50 is at most 1 µM.

How did the IC50 turn out when `NCCOc1cccc(C#CC2(O)CCOCC2)c1` [Example 56, 4-((3-(2-Aminoethoxy)phenyl)ethynyl)tetrahydro-2H-pyran-4-ol] was run?
The IC50 was at most 10 µM.

For `CCCC#Cc1cccc(CCCN)c1` [Example 43, 3-(3-(Pent-1-ynyl)phenyl)propan-1-amine], which IC50 is on record?
The IC50 was at most 1 µM.

For `NCCCc1cccc(C#Cc2cccc3ccccc23)c1` [Example 82, 3-(3-(Naphthalen-1-ylethynyl)phenyl)propan-1-amine], which IC50 is on record?
The IC50 was at most 100 µM.

`COCC#Cc1cccc(CCCN)c1` [Example 9, 3-(3-(3-Methoxyprop-1-ynyl)phenyl)propan-1-amine] was tested. Which IC50 did it give?
Its IC50 is at most 10 µM.

Which IC50 does the source give for `CSc1ccc(C#Cc2cccc(CCCN)c2)cc1` [Example 94, 3-(3-((4-(Methylthio)phenyl)ethynyl)phenyl)propan-1-amine] here?
Its IC50 is at most 100 µM.

With `CC(O)(C#Cc1cccc(CCCN)c1)c1ccccc1` (centres unmarked) [Example 22, 4-(3-(3-Aminopropyl)Phenyl)-2-Phenylbut-3-Yn-2-ol] as the compound, how does the IC50 read?
Its IC50 is at most 1 µM.

`NCCC(O)c1cccc(C#CCc2ccccc2)c1` (centres unmarked) [Example 49, 3-Amino-1-(3-(3-phenylprop-1-ynyl)phenyl)propan-1-ol] was tested. Which IC50 did it give?
Its IC50 is at most 1 µM.

Which IC50 does the source give for `NCCOc1cccc(C#Cc2cccs2)c1` [Example 95, 2-(3-(Thiophen-2-ylethynyl)phenoxy)ethanamine] here?
The IC50 was at most 1 µM.

Which IC50 does the source give for `NCCCc1cccc(C#Cc2ccccc2O)c1` [Example 89, 2-((3-(3-Aminopropyl)phenyl)ethynyl)phenol] here?
The IC50 was at most 10 µM.

How did the IC50 turn out when `COc1ccccc1C#Cc1cccc(OCCN)c1` [Example 91, 2-(3-((2-Methoxyphenyl)Ethynyl)Phenoxy)Ethanamine] was run?
Its IC50 is at most 1 µM.

Which IC50 does the source give for `NCCCc1cccc(C#Cc2ccsc2)c1` [Example 66, 3-(3-(Thiophen-3-ylethynyl)phenyl)propan-1-amine] here?
The IC50 was at most 10 µM.

With `CC(C)CC(C)(O)C#Cc1cccc(CCCN)c1` (centres unmarked) [Example 6, 1-(3-(3-Aminopropyl)phenyl)-3,5-dimethylhex-1-yn-3-ol] as the compound, how does the IC50 read?
The IC50 was at most 1 µM.

For `CCCCCC#Cc1cccc(C(O)CCN)c1` (centres unmarked) [Example 53, 3-Amino-1-(3-(hept-1-ynyl)phenyl)propan-1-ol], which IC50 is on record?
Its IC50 is at most 1 µM.

How did the IC50 turn out when `CCCCCC#Cc1cccc(OCCN)c1` [Example 77, 2-(3-(hept-1-ynyl)phenoxy)ethanamine] was run?
Its IC50 is at most 1 µM.

How did the IC50 turn out when `NCCCc1cccc(C#CCO)c1` [Example 10, 3-(3-(3-Aminopropyl)phenyl)prop-2-yn-1-ol] was run?
Its IC50 is at most 100 µM.

`CC(C)C(C)(O)C#Cc1cccc(CCCN)c1` (centres unmarked) [Example 21, 1-(3-(3-Aminopropyl)phenyl)-3,4-dimethylpent-1-yn-3-ol] was tested. Which IC50 did it give?
The IC50 was at most 1 µM.
